Holding throughout (format): cell-based
Assay [1] deals with intact retinas from P12 wild type mice. The assay can be described thus: P12 mouse retinal explant culture, qPCR for rod gene expression. The note with it: P12 explants; for dose-response, Nrl, Nr2e3, and Rho expression: 2-3 days; for relative rhodopsin (Rho) expression: 1 μM, 2 days. An excerpt: To identify functional Nr2e3 antagonists, compounds were cheminformatically searched and structural analogs of a putative Nr2e3 interacting compound with unknown function were collected. See FIGS. 2 and 4 for the structures of the compounds. The collected compounds were then screened in a physiologically relevant primary culture assay using intact retinas from postnatal day 12-13 (P12-13) C57BL/6 mice for suppression of Rho expression (See FIG. 6A). After a 2 day culture period with media containing DMSO or compounds at 1 μM, the retinas were collected and assessed Rho expression by qPCR. Rho was chosen because it is a well-described target of Nr2e3 in rod photoreceptors. […] This analysis also provided an initial structure-activity relationship.
(§1) Nr2e3 loss-of-function mutations lead to a reduction in rod gene expression. To determine whether the same was true for PR1 (FIG. 6D), explant cultures of P12 retina as above were treated and assayed for other rod photoreceptor genes. After 2 days in culture, PR1 decreased the expression of the rod specific genes Nrl, Nr2e3, Rho, Gnat1, and Pde6b compared to DMSO treatment by qPCR analysis (FIG. 6C). […] To determine the dose-response relationship between PR1 concentration and expression of rod genes, retinas from P12 mice were explanted in media containing DMSO or 0.1, 1, 5, or 10 μM PR1 for 2-3 days and assayed Nrl, Nr2e3, and Rho expression by qPCR. […] PR1 was tested to determine whether it could cause a reduction in Rho expression in human rod photoreceptors as well. Pairs of 113 day post-conception retinas were explanted in media with DMSO or 10 μM PR1 for 7 or 23 days. After 7 and 23 days in culture, PR1 decreased the expression of Rho compared to DMSO treatment (FIG. 6F), similar to the effect observed in mouse retinal explants.
(§2) Intact retinas without RPE from mice of various strains and ages as indicated were explanted on 0.4 μm pore tissue culture inserts (Millipore) as previously described (Ueki, Y., et al., P53 is required for the developmental restriction in Muller glial proliferation in mouse retina. Glia, 2012. 60(10): p. 1579-89; Ueki, Y., et al., A transient wave of BMP signaling in the retina is necessary for Muller glial differentiation. Development, 2015. 142(3): p. 533-43. Full media (DMEM/F12 (1:1) containing 1% dialyzed FBS, 1% Pen Strep, 0.3% D+ glucose, 2% B27, and 1% N2) changes were performed every other day and small molecules were used at 0.1 μM to 10 μM. Where indicated, EdU (Invitrogen) was included in the media at 5 μg/mL and visualized by staining with the Click-iT EdU Alexa Fluor kit (Thermo Fisher Scientific). For human retinal explant cultures, tissue from 113 day post-conception fetuses was obtained from the University of Washington Birth Defects Laboratory and explanted on 0.4 μm pore tissue culture inserts (Millipore) in media (Neurobasal A with 1% FBS, 1% Pen Strep, 1% N2, 1% B27) containing 10 μM Photoregulin1 or an equal volume of DMSO.
RNA was isolated using TRIzol (Invitrogen) and cDNA was synthesized using the iScript cDNA synthesis kit (Bio-Rad) following an intervening DNase treatment with RQ1 RNase-free DNase (Promega). SSO Fast (Bio-Rad) was used for quantitative real-time PCR. For analysis, values were normalized to Gapdh and ΔΔCt between DMSO and compound-treated samples was expressed as percent of DMSO treated controls (100*2^ΔΔCt). Two-way Student's t-tests were performed on ΔCt values.

In assay [2] the test system is Human retinal explants from 113 day post-conception fetuses. The assay can be described thus: Human fetal retinal explant culture, qPCR for RHO expression. Particulars: 10 μM, vs DMSO. As for the experimental part:
as §1, with “After 7 and 23 days in culture, PR1 decreased the expression of Rho compared to DMSO treatment (FIG. 6F), similar to the effect observed in mouse retinal explants.” left out
RNA was isolated using TRIzol (Invitrogen) and cDNA was synthesized using the iScript cDNA synthesis kit (Bio-Rad) following an intervening DNase treatment with RQ1 RNase-free DNase (Promega). SSO Fast (Bio-Rad) was used for quantitative real-time PCR. For analysis, values were normalized to Gapdh and ΔΔCt between DMSO and compound-treated samples was expressed as percent of DMSO treated controls (100*2^ΔΔCt). […]

Assay [3] has as its system Explants from P12 Nrl-eGFP mice. Kind of assay: P12 Nrl-eGFP mouse retinal explants, 5 DIV, immunofluorescence and EdU. How it is done:
Previous loss of function genetic data has shown that Nr2e3 is required for rod photoreceptor development, but it is not known whether there is a continuing requirement for Nr2e3 in mature rods. […] To further examine the effects of PR1 at these late developmental stages, the effects of PR1 on P12 retinal explants by immunohistochemical analysis were studied (FIG. 8A). Explants from P12 Nrl-eGFP mice were cultured for 5 days in either DMSO or 1 μM PR1 containing media, and then fixed and processed for immunofluorescent labeling with anti-rhodopsin and anti-S opsin antibodies.
To determine if PR1 affects retinal cells other than photoreceptors, bipolar cells (PKCα, Chx10), amacrine cells (HuCD), and Muller glia (Sox2) were quantified in explants treated with DMSO or 1 μM PR1 for 5 DIV. […] EdU (5-ethynyl-2′-deoxyuridine) was added to the cultures to determine whether PR1 might have a similar effect.
as §2
Retinal explants or eyecups were fixed in 4% PFA in 1×PBS for 20 minutes at room temperature and then cryoprotected in 30% sucrose in 1×PBS overnight at 4° C. Samples were embedded in OCT (Sakura Finetek), frozen on dry ice, and then sectioned at 14-16 μm on a cryostat (Leica). Slides were blocked with a solution containing 10% Normal Horse Serum (Vector Labs) and 0.5% Triton X-100 (Sigma-Aldrich) in 1×PBS for 1 hour at room temperature and then stained overnight at 4° C. with primary antibodies diluted in blocking solution. Slides were washed three times with 1×PBS the following day and then incubated in secondary antibodies (Life Technologies) diluted in blocking solution for 2 hours at room temperature, stained with DAPI (Sigma-Aldrich), washed, and coverslipped using Fluoromount-G (SouthernBiotech). An Olympus FluoView FV1000 was used for confocal microscopy.

Entries after “also recorded” stand apart in the source; their conditions may differ.

In the case of `Cc1cc(C)cc(NC(=O)CCc2nc3sc4c(c3c(=O)[nH]2)CCCC4)c1` [PR1, N-(3,5-dimethylphenyl)-3-(4-oxo-5,6,7,8-tetrahydro-3H-[1]benzothiolo[2,3-d]pyrimidin-2-yl)propanamide], the “dose-response, Nrl, Nr2e3, and Rho expression” value in assay [1] (0.1 uM) is “Some effect”. Moreover, the “relative rhodopsin (Rho) expression” value in assay [1] (vs DMSO) is listed as “substantially decrease Rho expression; also recorded: decreased”. The “relative rhodopsin (Rho) expression” value in assay [1] (vs DMSO, listed as CA88) was “reducing rhodopsin expression”. Also, in assay [1] (2 days in culture, vs DMSO), the Crx expression result is “did not significantly decrease”, the Gnat1 expression result is “decreased”, the Gnb1 expression result is “did not significantly decrease” and the Nr2e3 expression result is “decreased”. Besides, in assay [1] (2 days in culture, vs DMSO), the Nrl expression entry is on record as “decreased” and the Pde6b expression entry is “decreased”. The “dose-response, Nrl, Nr2e3, and Rho expression” value in assay [1] (higher concentrations (1, 5, or 10 μM)) is “statistically significant reductions”. Moreover, the Rho expression entry in assay [2] (7 days in culture) is listed as “decreased”. For the same compound, in assay [2] (23 days in culture), the Rho expression result is “decreased”. Further, in assay [3] (P12 explants, 1 μM, 5 days), the “number of S opsin+ cells in the ONL” value is reported as “increase in the number of S opsin+ cells” and the “rhodopsin staining in Nrl-GFP-positive rods” value is reported as “dramatic decrease in rhodopsin staining”. Also, in assay [3] (P12 explants, 5 DIV, EdU in media), the “number of EdU labeled cells” value is reported as “increase in the number of EdU labeled cells”. Moreover, in assay [3] (explants, 1 μM, 5 DIV), the “migration of the Muller glial (Sox2+) nuclei into the ONL” value was “increase in the migration”. The “bipolar cells (PKCα, Chx10), amacrine cells (HuCD), and Muller glia (Sox2)” value in assay [3] (explants, 1 μM, 5 DIV, vs DMSO) is recorded as “No differences”.

The record behind these values is patent publication US10849904B2, “Methods for treatment of retinal disease by photoreceptor gene expression modulation” (University of Washington, priority 2015, dated 2020).
